In US20110135774A1, “Process for Preparing a Plant Extract of Passiflora Alata and Use of Said Extract in Cosmetic and Pharmaceutical Compositions” (priority 2007, published 2011):

Legend:
Type in all cases: cell-based
Settings in all cases: Fibroblast
IL-6 secretion [1] = test: Inhibition of IL-6 secretion in human dermal fibroblasts (Example 7.1)
Protocol: (§1) The objective of this test was to assess the anti-inflammatory potential of in vitro extracts, using human dermal fibroblast cultures. The statistical significance (p<0.05) of the data was verified by the analysis of variance (One-Way ANOVA) followed by a Tukey multiple comparison using the SYSTAT 10 software.
(§2) Human fibroblasts derived from the dermis were incubated with lipopolysaccharide (LPS) of Escherichia coli to induce the secretion of pro-inflammatory citokines IL-6 and IL-8 (Interleukin 6 and 8). The anti-inflammatory potential of the sample was identified by the reduction in the secretion of the pro-inflammatory markers. • Material used: Dermis-derived human fibroblasts, kept in culture until the tenth passage at most. […]
(§3) After stimulation, supernatants were collected, stored at −20° C. and analysed by ELISA (described below). In order to keep cell viability after stimulation, the cells were incubated with a Neutral Red solution for 3 hours and after washing with 200 μl of PBS, 200 μl of development solution were added, and the reading was performed at 540 nm. […]
(§4) For the ELISA test, 96-well plates were used. The quantification of pro-inflammatory markers was determined from the comparisons with the standard curves specifically constructed for IL-6 or IL-8. […]

IL-8 secretion [2] = test: Inhibition of IL-8 secretion in human dermal fibroblasts (Example 7.1)
Protocol: as §1, §2, §3, §4

IL-6 secretion [3] = test: Inhibition of IL-6 secretion in human dermal fibroblasts stimulated with LPS or UVB (Example 7.2)
Protocol: (§5) Dermis-derived human fibroblasts were incubated with lipopolysaccharide (LPS) or UV to induce the secretion of pro-inflammatory markers IL-6 and IL-8. The anti-inflammatory potential of the sample was identified by the reduction in the secretion of the pro-inflammatory markers. Material used: Dermis-derived human fibroblasts, kept in culture until the tenth passage at most. Sterile-culture plates with 96 wells, non-sterile plates with 96 wells, conical tubes of 15 ml and 50 ml, radiation chamber with UVB lamp. 96-well plates were prepared with 2×10^4 cells/well in 100 μl μl of DMEM containing 10% SFB. The cells were incubated overnight in a CO2 oven. The culture medium was discarded and the wells were washed with 200 μl PBS. 100 μl of DMEM containing 1% SFB and the suitable stimuli were added. Incubation was carried out in a CO2 oven overnight. […] 100 μl of PBS and the suitable stimuli were added. […] After stimulation, supernatants were collected, stored at −20° C. and assessed by ELISA (described below). In order to keep cell viability after stimulation, the cells were incubated with a Neutral Red solution for 3 hours and, after washing with 200 μl of PBS, 200 μl of development solution were added, and the reading was performed at 540 nm. […] The quantification of pro-inflammatory markers was determined from the comparisons with the standard curves specifically constructed for IL-6 or IL-8. […]

IL-8 secretion [4] = test: Inhibition of IL-8 secretion in human dermal fibroblasts stimulated with LPS or UVB (Example 7.2)
Protocol: as §5

[5] = 5 uM + LPS 10 ng/ml, reference LPS
[6] = 5 uM, no LPS, reference Control
[7] = LPS 10 ng/ml + 5 uM, reference LPS
[8] = light or radiation study, UVB 0.23 J/cm2 + 5 uM, reference UVB

Structure (SMILES) | inhibition at 5 µM (IL-6 secretion [1]; [5]) | inhibition at 5 µM (IL-6 secretion [1]; [6]) | inhibition at 5 µM (IL-8 secretion [2]; [5]) | inhibition at 5 µM (IL-8 secretion [2]; [6]) | inhibition at 5 µM (IL-6 secretion [3]; [7]) | inhibition at 5 µM (IL-8 secretion [4]; [7]) | inhibition at 5 µM (IL-6 secretion [3]; [8]) | inhibition at 5 µM (IL-8 secretion [4]; [8])
C[C@@H]1C[C@H]2[C@@H]3CCC4=CC(=O)C=C[C@]4(C)[C@@]3(F)[C@@H](O)C[C@]2(C)[C@@]1(O)C(=O)CO [Dexamethasone] | 96% | 71% | 53% | 68% | 94% | 82% | – | –
C[C@]12CCC(=O)C=C1CC[C@@H]1[C@@H]2[C@@H](O)C[C@@]2(C)[C@H]1CC[C@]2(O)C(=O)CO [Hydrocortisone] | – | – | – | – | – | – | 71% | 79%
